Experiments:
Phytophthora infestans [1] = test: microbe, parasite or virus in culture; format: cell-based; settings: in Secale cereale, 168 h, read-out: control compared to the untreated check
Phytophthora infestans [2] = test: whole plant or invertebrate; format: in vivo, Phytophthora infestans on tomato plants; settings: in Solanum lycopersicum, 24 h, read-out: control compared to the untreated check
Plasmopara viticola = test: Example B: Plasmopara viticola test in grape (greenhouse, preventive); format: in vivo; settings: 24 h, grape seedlings sprayed one day before inoculation, disease severity rating, read-out: control compared to the untreated check
Method: Example B: Plasmopara viticola Test in Grape
The compound were dissolved in 2% DMSO/Acetone & then mixed with water containing emulsifier to a calibrated spray volume of 50 mL. The spray solutions were poured into spray bottles for further applications.
To test the preventive activity of compounds, 5 week old healthy grape seedlings, cv. Thompson seedless, raised in the greenhouse, were sprayed with the active compound preparation at the stated application rates inside spray cabinets using hallow cone nozzles. One day after treatment, the plants were inoculated with an inoculum suspension (sterile water) containing 6×10^4 Plasmopara viticola inoculum. The inoculated plants were then kept in a greenhouse chamber at 18-21° C. temperature and 95-100% relative humidity for disease expression.
A visual assessment of the performance of the compound was carried out by rating the disease severity (0-100% scale) on treated plants 3, 7 and 10 days after application. Efficacy (% control) of the compound was calculated by comparing the disease rating in the treatment with the one of the untreated control. The compounds were also assessed for their plant compatibility by recording symptoms like necrosis, chlorosis & stunting

| Compound | inhibition of growth at 30 ppm (Phytophthora infestans [1]) [%] | pest or weed control at 50 ppm (Phytophthora infestans [2]) [%] | pest or weed control at 50 ppm (Plasmopara viticola) [%] |
| --- | --- | --- | --- |
| O=C(COc1nccnc1C(F)(F)F)N1CCC(c2nc(C3=NOC(c4c(Cl)cc(Cl)cc4Cl)C3)cs2)CC1 (stereo not shown) [Compound 2, 1-(4-(4-(5-(2,4,6-trichlorophenyl)-4,5-dihydroisoxazol-3-yl)thiazol-2-yl)piperidin-1-yl)-2-((3-(trifluoromethyl)pyrazin-2-yl)oxy)ethan-1-one] | ≥ 70 | ≥ 70 | ≥ 70 |
| COc1nc(OC)nc(OCC(=O)N2CCC(c3nc(C4=NOC(c5c(F)cccc5Br)C4)cs3)CC2)n1 (stereo not shown) [Compound 110, 1-(4-(4-(5-(2-bromo-6-fluorophenyl)-4,5-dihydroisoxazol-3-yl)thiazol-2-yl)piperidin-1-yl)-2-((4,6-dimethoxy-1,3,5-triazin-2-yl)oxy)ethan-1-one] | ≥ 70 | ≥ 70 | ≥ 70 |
| O=C(COc1nccnc1C(F)(F)F)N1CCC(c2csc(C3=NOC(c4c(F)cccc4F)C3)n2)CC1 (stereo not shown) [Compound 23, 1-(4-(2-(5-(2,6-difluorophenyl)-4,5-dihydroisoxazol-3-yl)thiazol-4-yl)piperidin-1-yl)-2-((3-(trifluoromethyl)pyrazin-2-yl)oxy)ethan-1-one] | ≥ 70 | – | ≥ 70 |
| CS(=O)(=O)Oc1cccc(Cl)c1C1CC(c2csc(C3CCN(C(=O)COc4nccnc4Cl)CC3)n2)=NO1 (stereo not shown) [Compound 127, 3-chloro-2-(3-(2-(1-(2-((3-chloropyrazin-2-yl)oxy)acetyl)piperidin-4-yl)thiazol-4-yl)-4,5-dihydroisoxazol-5-yl)phenyl methanesulfonate] | – | ≥ 70 | ≥ 70 |
| O=C(COc1nccnc1Cl)N1CCC(c2nc(C3=NOC(c4c(F)cccc4Cl)C3)cs2)CC1 (stereo not shown) [Compound 125, 1-(4-(4-(5-(2-chloro-6-fluorophenyl)-4,5-dihydroisoxazol-3-yl)thiazol-2-yl)piperidin-1-yl)-2-((3-chloropyrazin-2-yl)oxy)ethan-1-one] | – | ≥ 70 | ≥ 70 |
| O=C(COc1nccnc1C(F)(F)F)N1CCC(c2csc(C3=NOC(c4c(Cl)cccc4Cl)C3)n2)CC1 (stereo not shown) [Compound 13, 1-(4-(2-(5-(2,6-dichlorophenyl)-4,5-dihydroisoxazol-3-yl)thiazol-4-yl)piperidin-1-yl)-2-((3-(trifluoromethyl)pyrazin-2-yl)oxy)ethan-1-one] | ≥ 70 | ≥ 70 | – |
| O=C(COc1ccc(C(F)(F)F)nn1)N1CCC(c2nc(C3=NOC(c4c(Cl)cc(Cl)cc4Cl)C3)cs2)CC1 (stereo not shown) [Compound 37, 1-(4-(4-(5-(2,4,6-trichlorophenyl)-4,5-dihydroisoxazol-3-yl)thiazol-2-yl)piperidin-1-yl)-2-((6-(trifluoromethyl)pyridazin-3-yl)oxy)ethan-1-one] | ≥ 70 | ≥ 70 | – |
| CS(=O)(=O)Oc1cccc(Cl)c1C1CC(c2csc(C3CCN(C(=O)COc4cc(C(F)(F)F)ncn4)CC3)n2)=NO1 (stereo not shown) [Compound 7, 3-chloro-2-(3-(2-(1-(2-((6-(trifluoromethyl)pyrimidin-4-yl)oxy)acetyl)piperidin-4-yl)thiazol-4-yl)-4,5-dihydroisoxazol-5-yl)phenyl methanesulfonate] | ≥ 70 | ≥ 70 | – |
| O=C(COc1nccnc1C(F)(F)F)N1CCC(c2nc(C3=NOC(c4c(F)cccc4F)C3)cs2)CC1 (stereo not shown) [Compound 5, 1-(4-(4-(5-(2,6-difluorophenyl)-4,5-dihydroisoxazol-3-yl)thiazol-2-yl)piperidin-1-yl)-2-((3-(trifluoromethyl)pyrazin-2-yl)oxy)ethan-1-one] | ≥ 70 | ≥ 70 | – |
| O=C(COc1nccnc1C(F)(F)F)N1CCC(c2nc(C3OCc4c(F)ccc(F)c4CO3)cs2)CC1 [Compound 64, 1-(4-(4-(6,9-difluoro-1,5-dihydrobenzo[e][1,3]dioxepin-3-yl)thiazol-2-yl)piperidin-1-yl)-2-((3-(trifluoromethyl)pyrazin-2-yl)oxy)ethan-1-one] | ≥ 70 | ≥ 70 | – |
| O=C(COc1cc(C(F)(F)F)ncn1)N1CCC(c2nc(C3=NOC(c4c(F)cccc4Cl)C3)cs2)CC1 (stereo not shown) [Compound 9, 1-(4-(4-(5-(2-chloro-6-fluorophenyl)-4,5-dihydroisoxazol-3-yl)thiazol-2-yl)piperidin-1-yl)-2-((6-(trifluoromethyl)pyrimidin-4-yl)oxy)ethan-1-one] | ≥ 70 | ≥ 70 | – |
| O=C(COc1nccnc1Cl)N1CCC(c2nc(C3=NOC(c4c(Cl)cc(Cl)cc4Cl)C3)cs2)CC1 (stereo not shown) [Compound 123, 2-((3-chloropyrazin-2-yl)oxy)-1-(4-(4-(5-(2,4,6-trichlorophenyl)-4,5-dihydroisoxazol-3-yl)thiazol-2-yl)piperidin-1-yl)ethan-1-one] | – | ≥ 70 | ≥ 70 |
| O=C(COc1nccnc1C(F)(F)F)N1CCC(c2nc(C3=NOC(c4c(F)cccc4F)C3)sc2Cl)CC1 (stereo not shown) [Compound 22, 1-(4-(5-chloro-2-(5-(2,6-difluorophenyl)-4,5-dihydroisoxazol-3-yl)thiazol-4-yl)piperidin-1-yl)-2-((3-(trifluoromethyl)pyrazin-2-yl)oxy)ethan-1-one] | – | – | ≥ 70 |
| O=C(COc1nccnc1C(F)(F)F)N1CCC(c2csc(C3=NOC(c4c(Cl)cc(Cl)cc4Cl)C3)n2)CC1 (stereo not shown) [Compound 8, 1-(4-(2-(5-(2,4,6-trichlorophenyl)-4,5-dihydroisoxazol-3-yl)thiazol-4-yl)piperidin-1-yl)-2-((3-(trifluoromethyl)pyrazin-2-yl)oxy)ethan-1-one] | ≥ 70 | ≥ 70 | – |
| COc1ccnc(OCC(=O)N2CCC(c3nc(C4=NOC(c5c(F)cccc5F)C4)cs3)CC2)n1 (stereo not shown) [Compound 36, 1-(4-(4-(5-(2,6-difluorophenyl)-4,5-dihydroisoxazol-3-yl)thiazol-2-yl)piperidin-1-yl)-2-((4-methoxypyrimidin-2-yl)oxy)ethan-1-one] | ≥ 70 | ≥ 70 | – |
| COc1ccnc(OCC(=O)N2CCC(c3nc(C4=NOC(c5c(Cl)cccc5C#N)C4)cs3)CC2)n1 (stereo not shown) [Compound 31, 3-chloro-2-(3-(2-(1-(2-((4-methoxypyrimidin-2-yl)oxy)acetyl)piperidin-4-yl)thiazol-4-yl)-4,5-dihydroisoxazol-5-yl)benzonitrile] | ≥ 70 | ≥ 70 | – |
| O=C(COc1ccc(C(F)(F)F)nn1)N1CCC(c2nc(C3=NOC(c4c(F)cccc4Br)C3)cs2)CC1 (stereo not shown) [Compound 43, 1-(4-(4-(5-(2-bromo-6-fluorophenyl)-4,5-dihydroisoxazol-3-yl)thiazol-2-yl)piperidin-1-yl)-2-((6-(trifluoromethyl)pyridazin-3-yl)oxy)ethan-1-one] | ≥ 70 | ≥ 70 | – |
| O=C(COc1cc(C(F)(F)F)ncn1)N1CCC(c2nc(C3=NOC(c4c(Cl)cccc4Cl)C3)cs2)CC1 (stereo not shown) [Compound 14, 1-(4-(4-(5-(2,6-dichlorophenyl)-4,5-dihydroisoxazol-3-yl)thiazol-2-yl)piperidin-1-yl)-2-((6-(trifluoromethyl)pyrimidin-4-yl)oxy)ethan-1-one] | ≥ 70 | ≥ 70 | – |
